Measured values taken from patent US20240327331A1, “ESTERS OF 7-COOH CBD DERIVATIVES AND THEIR USE AS PREVENTION, PROPHYLAXIS OF PROGRESSION, AND/OR TREATMENT OF NEUROGENERATIVE DISEASES” (Receptor Pharma INC, priority 2021, published 2024).

Assays:
GPR3 receptor [1] = molecular target: T1, GPR3 receptor (Homo sapiens, UniProt P46089); conditions: cited from earlier work; for mode of action at the GPR3 receptor: Laun and Song 2017, Lunn et al 2006
[2] = test system: CB1 and CB2 receptors as well as the voltage gated Na channel and mono-amine transporters; conditions: physiological relevant concentrations; cited from earlier work
GPR3 receptor [3] = molecular target: T1, GPR3 receptor; test: PathHunter β-arrestin2 recruitment assay in CHO-K1 cells expressing GPR3-PK; assay type: cell-based; design: host or cells: CHO-K1 (PathHunter eXpress kit); conditions: for mode of action at the GPR3 receptor (β-arrestin2 recruitment): 0.1 μM, 1 μM and 10 μM, FIG. 1
Source text: The PathHunter™ eXpress kits containing Chinese hamster ovary (CHO)-K1 cells co-expressing EA-O-arrestin2 human and GPR3-PK were purchased from DiscoverX (Fremont, CA). All cannabinoid ligands were purchased from BDG Synthesis (Wellington, New Zealand).
PathHunter™ eXpress kits were used to measure GPR3-mediated β-arrestin2 recruitment following manufacturer's instructions. In this system, Chinese hamster ovary (CHO)-K1 cell line are stably expressing the GPR3 receptors which were fused to a “ProLink (PK)” fragment of βi-galactosidase to form GPR3-PK. The remaining sequence of β-galactosidase enzyme acceptor (EA) was linked to β-arrestin2 to form EA-β-arrestin2. Recruitment of Si-arrestin2 by receptor activation causes complementation of the two enzyme fragments. Levels of the active enzyme are the direct result of β-arrestin2 recruitment caused by receptor activation and quantified using the PathHunter detection reagent containing β-galactosidase substrates. Cells were plated in DiscoverX cell plating reagent1 in 384-well plates and cultured for 24-48 hours prior to experimentation in a humidified atmosphere at 37° C. and 5% CO2. Cannabinoid ligands were diluted in DiscoverX cell plating reagent1. Cells were then incubated with ligand at 37° C. following manufacturer's recommendations, followed by incubation with detection reagent in the dark for 1 hour at 23° C. Luminescence signal was then detected using a TECAN GENios Pro microplate reader.
Ligand-induced changes in R-arrestin2 recruitment to GPR3 were expressed as percent basal relative luminescence units, which was calculated by dividing luminescence readings in the presence of ligands by basal luminescence readings, times 100. Concentration-response curves were generated by performing nonlinear regression analysis using GraphPad Prism (GraphPad Software, La Jolla, CA). Data were analyzed using one-way analysis of variance (ANOVA) followed by NewmanKeuls post-test. Data points shown are presented as mean±SEM, and were obtained from three independent experiments performed in quadruplicate.
To determine whether CBD and its human metabolites 6-OH-CBD, 7-OH-CBD and 7-COOH-CBD are capable of changing S3-arrestin2 recruitment to GPR3, β-arrestin2 recruitment assays were performed using 0.1 μM and 1 μM and 10 μM concentrations.

[4] = after CBD, in the body; cited from earlier work
[5] = test system: animal models of epilepsy; conditions: cited from earlier work
[6] = test system: icv streptozotocin (stz) rat model of Alzheimer Disease; test: Novel object recognition test in icv streptozotocin rat model of Alzheimer Disease; assay type: in vivo, Wistar rats; conditions: STZ 3 mg/kg icv, daily treatment 8 days, test after 24 h; 1j 25 mg/kg ip, 7-COOH-CBD 20 mg/kg; N=6
Source text: This in vivo model represents a model for the most frequent form of Alzheimer Disease, the late onset or ‘sporadic’ form. The icv injection of stz in the rat brain induces pathological changes that are observed in patients with Alzheimer Disease, like accumulation of beta-amyloid and Tau-protein and the well-known cognitive impairment. This well-known model was first described in the 90-ies by Mayer et al. (1990) and Lannert et al. (1998). The procedure for the creation of the model has recently been described in detail by Moreiro-Silva et al. (2019). In short, a 1-3 mg/kg dose of stz is injected bilateraly by icv injection in Wistar rats, and the animals are allowed to recover for a period of 7 days, after which animals can be evaluated for neurodegenerative changes in behaviour and/or by imaging of the brain.
The novel object recognition data were analyzed using the Student's t-test, with differences being considered significant if p<0.05.
On day 8, the animals were subjected to the novel object recognition (NOR) behavioural test. All objects used for the is test had similar textures, colors, and sizes but distinctive shapes. The rats were placed in a rectangular arena (76×49×57 cm) containing two identical objects (A1+A2) for the habituation and training phase. […] The discrimination index was calculated by: […]

T1 sequence (P46089 whole entry): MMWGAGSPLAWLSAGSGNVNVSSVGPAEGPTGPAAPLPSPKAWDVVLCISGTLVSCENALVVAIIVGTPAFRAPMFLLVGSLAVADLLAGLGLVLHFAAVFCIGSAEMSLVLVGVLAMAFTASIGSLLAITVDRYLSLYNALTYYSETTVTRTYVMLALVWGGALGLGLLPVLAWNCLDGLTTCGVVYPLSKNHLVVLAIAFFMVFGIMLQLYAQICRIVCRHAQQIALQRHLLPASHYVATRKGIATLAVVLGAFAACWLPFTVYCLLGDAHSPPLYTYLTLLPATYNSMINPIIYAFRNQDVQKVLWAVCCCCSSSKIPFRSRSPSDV

| Compound | mode of action at the GPR3 receptor (GPR3 receptor [1]) | mode of action at the GPR3 receptor (β-arrestin2 recruitment) (GPR3 receptor [3]) | anticonvulsant action [5] | long-term memory index (discrimination index), novel object recognition [6] | other results |
| --- | --- | --- | --- | --- | --- |
| COc1ccc(S(=O)(=O)c2cc(OC)ccc2S(=O)(=O)c2ccc([C@H](C)NS(C)(=O)=O)cc2)cc1 [Sch.336, N-[1(S)-[4-[[4-methoxy-2-[(4-methoxyphenyl)sulfonyl]phenyl]-sulfonyl]phenyl]ethyl]methanesulfonamide] | inverse agonist |  |  |  |  |
| C=C(C)[C@@H]1CCC(C(=O)O)=C[C@H]1c1c(O)cc(CCCCC)cc1O [Example 7-COOH-CBD, (3R-trans)-3-(2,6-dihydroxy-4-pentylphenyl)-4-(1-methylethenyl)-1-cyclohexene-1-carboxylic acid] |  | full antagonist | devoid of any anticonvulsant action | 79.6±3.4 | binding or modulation in in vitro binding/target panel [2]: no binding or modulation properties; competition with SR144528 at the GPR3 binding site (GPR3 receptor [3]; 10 μM 7-COOH-CBD, ascending concentrations of SR144528): displaces the inverse agonist from the GPR3 binding site; plasma levels of metabolite relative to parent compound CBD [4]: up to 50 fold |
| C=C(C)[C@@H]1C[C@H](O)C(C)=C[C@H]1c1c(O)cc(CCCCC)cc1O [Example 6-OH-CBD] |  | weak agonists |  |  |  |
| C=C(C)[C@@H]1CCC(C)=C[C@H]1c1c(O)cc(CCCCC)cc1O [CBD, Cannabidiol] | inverse agonist | inverse agonist |  |  | IC50 (GPR3 receptor [1]; inverse agonism): 1.22 µM; inhibition of GPR3 receptor activity (GPR3 receptor [1]; inverse agonist, dose-dependent): 39% |
| C=C(C)[C@@H]1CCC(CO)=C[C@H]1c1c(O)cc(CCCCC)cc1O [Example 7-OH-CBD, 7-hydroxy-CBD] |  | weak agonists | equipotency to CBD |  | plasma levels of metabolite relative to plasma levels of parent compound CBD [4]: about 50% |
| (3R-trans)-3-(2,6-dihydroxy-4-pentylphenyl)-4-(1-methylethenyl)-1-cyclohexene-1-carboxylic acid cyclopropane ester [Example 1j] |  |  |  | 80.5±3.9 |  |
